For test [1], the target named is T1, E255V Bcr-abl (Ba/F3 cells) (Homo sapiens, UniProt P00519, E255V).
T1 construct: expressed in transfected cells; host or cells: Ba/F3; the other entry of the earlier key: BCR (P11274, Breakpoint cluster region protein)
The test is described as follows: Proliferation of Ba/F3 cells expressing mutant Bcr-abl E255V. It counts as cell-based. How it is done:
(§1) 2D-p210 cells are plated into 96 well TC plates at a density of 15,000 cells per well. 50 μL of two fold serial dilutions of the test compound (Cmax is 40 μM) are added to each well (STI571 is included as a positive control). After incubating the cells for 48 hours at 37° C., 5% CO2, 15 μL of MTT (Promega) is added to each well and the cells are incubated for an additional 5 hours. The optical density at 570 nm is quantified spectrophotometrically and IC50 values, the concentration of compound required for 50% inhibition, determined from a dose response curve.
(§2) Compounds of the invention are tested for their antiproliferative effect on Ba/F3 cells expressing either wild type or the mutant forms of BCR-Abl (G250E, E255V, T315I, F317L, M351T) that confers resistance or diminished sensitivity to STI571. The antiproliferative effect of these compounds on the mutant-BCR-Abl expressing cells and on the non transformed cells were tested at 10, 3.3, 1.1 and 0.37 μM as described above (in media lacking IL3). The IC50 values of the compounds lacking toxicity on the untransformed cells were determined from the dose response curves obtained as describe above.

For test [2], the target named is T2, F317L Bcr-abl (Ba/F3 cells) (Homo sapiens, UniProt P00519, F317L).
T2 construct: expressed in transfected cells; host or cells: Ba/F3; the other entry of the earlier key: BCR (P11274, Breakpoint cluster region protein)
The test can be described thus: Proliferation of Ba/F3 cells expressing mutant Bcr-abl F317L. It counts as cell-based. How it is done: as §1, §2

The target in the next test is b-Raf (Homo sapiens, UniProt P15056). The test is described as follows: b-Raf enzymatic assay. In kind it is biochemical. As to the method:
Compounds of the invention are tested for their ability to inhibit the activity of b-Raf. The assay is carried out in 384-well MaxiSorp plates (NUNC) with black walls and clear bottom. The substrate, IκBα: is diluted in DPBS (1:750) and 15 μl is added to each well. The plates are incubated at 4° C. overnight and washed 3 times with TBST (25 mM Tris, pH 8.0, 150 mM NaCl and 0.05% Tween-20) using the EMBLA plate washer. Plates are blocked by Superblock (15 μl/well) for 3 hours at room temperature, washed 3 times with TBST and pat-dried. Assay buffer containing 20 μM ATP (10 μl) is added to each well followed by 100 nl or 500 nl of compound. B-Raf is diluted in the assay buffer (1 μl into 25 μl) and 10 μl of diluted b-Raf is added to each well (0.4 μg/well). The plates are incubated at room temperature for 2.5 hours. The kinase reaction is stopped by washing the plates 6 times with TBST. Phosph-IκBα (Ser32/36) antibody is diluted in Superblock (1:10,000) and […] is added to each well. The plates are incubated at 4° C. overnight and washed 6 times with TBST. AP-conjugated goat-anti-mouse IgG is diluted in Superblock (1:1,500) and 15 μl is added to each well. Plates are incubated at room temperature for 1 hour and washed 6 times with TBST. […] Plates are read on Acquest or Analyst GT using a Fluorescence Intensity Program (Excitation 455 nm, Emission 580 nm).

The target of test [3] is T3, T315I Bcr-abl (Ba/F3 cells) (Homo sapiens, UniProt P00519, T315I).
T3 construct: expressed in transfected cells; host or cells: Ba/F3; the other entry of the earlier key: BCR (P11274, Breakpoint cluster region protein)
The test can be described thus: Proliferation of Ba/F3 cells expressing mutant Bcr-abl T315I. In kind it is cell-based. How it is done:
as §1, §2

In test [4] the target is T4, wild type Bcr-abl (Ba/F3 cells) (Homo sapiens, UniProt P00519).
T4 construct: expressed in transfected cells; host or cells: Ba/F3 (murine pro-B cells); the other entry of the earlier key: BCR (P11274, Breakpoint cluster region protein)
The test is described as follows: Proliferation of Ba/F3 cells expressing wild type Bcr-abl. It counts as cell-based. How it is done:
as §1, §2

The target in test [5] is T5, G250E Bcr-abl (Ba/F3 cells) (Homo sapiens, UniProt P00519, G250E).
T5 construct: expressed in transfected cells; host or cells: Ba/F3; the other entry of the earlier key: BCR (P11274, Breakpoint cluster region protein)
The test can be described thus: Proliferation of Ba/F3 cells expressing mutant Bcr-abl G250E. In kind it is cell-based. How it is done: as §1, §2

Test [6] concerns the target T6, PDGFRβ (Ba/F3-Tel-PDGFRβ) (Homo sapiens, UniProt P09619).
T6 construct: expressed in transfected cells; host or cells: Ba/F3; the other entry of the earlier key: ETV6 (P41212, Transcription factor ETV6)
The test is described as follows: PDGFRβ cellular assay (Ba/F3-Tel-PDGFRβ proliferation). In kind it is cell-based. As to conditions: read-out: IC50 against PDGFRβ in the cellular assay.

The test system of test [7] is b-Raf (A375 cells, V599E mutation). The test can be described thus: b-Raf cellular assay (phosphorylation of MEK in A375 cells). In kind it is cell-based. The note with it: Homo sapiens, A-375, phospho-MEK. As to the method: Compounds of the invention are tested in A375 cells for their ability to inhibit phosphorylation of MEK. A375 cell line (ATCC) is derived from a human melanoma patient and it has a V599E mutation on the B-Raf gene. The levels of phosphorylated MEK are elevated due to the mutation of B-Raf. Sub-confluent to confluent A375 cells are incubated with compounds for 2 hours at 37° C. in serum free medium. Cells are then washed once with cold PBS and lysed with the lysis buffer containing 1% Triton X100. After centrifugation, the supernatants are subjected to SDS-PAGE, and then transferred to nitrocellulose membranes. The membranes are then subjected to western blotting with anti-phospho-MEK antibody (ser217/221) (Cell Signaling). The amount of phosphorylated MEK is monitored by the density of phospho-MEK bands on the nitrocellulose membranes.

The target of test [8] is T7, M351T Bcr-abl (Ba/F3 cells) (Homo sapiens, UniProt P00519, M351T).
T7 construct: expressed in transfected cells; host or cells: Ba/F3; the other entry of the earlier key: BCR (P11274, Breakpoint cluster region protein)
The test is described as follows: Proliferation of Ba/F3 cells expressing mutant Bcr-abl M351T. It counts as cell-based. As to the method:
as §1, §2

Molecules are shown by their SMILES. Where only a bound is given, the exact number is not on record here.

Chain of b-Raf (P15056 whole entry): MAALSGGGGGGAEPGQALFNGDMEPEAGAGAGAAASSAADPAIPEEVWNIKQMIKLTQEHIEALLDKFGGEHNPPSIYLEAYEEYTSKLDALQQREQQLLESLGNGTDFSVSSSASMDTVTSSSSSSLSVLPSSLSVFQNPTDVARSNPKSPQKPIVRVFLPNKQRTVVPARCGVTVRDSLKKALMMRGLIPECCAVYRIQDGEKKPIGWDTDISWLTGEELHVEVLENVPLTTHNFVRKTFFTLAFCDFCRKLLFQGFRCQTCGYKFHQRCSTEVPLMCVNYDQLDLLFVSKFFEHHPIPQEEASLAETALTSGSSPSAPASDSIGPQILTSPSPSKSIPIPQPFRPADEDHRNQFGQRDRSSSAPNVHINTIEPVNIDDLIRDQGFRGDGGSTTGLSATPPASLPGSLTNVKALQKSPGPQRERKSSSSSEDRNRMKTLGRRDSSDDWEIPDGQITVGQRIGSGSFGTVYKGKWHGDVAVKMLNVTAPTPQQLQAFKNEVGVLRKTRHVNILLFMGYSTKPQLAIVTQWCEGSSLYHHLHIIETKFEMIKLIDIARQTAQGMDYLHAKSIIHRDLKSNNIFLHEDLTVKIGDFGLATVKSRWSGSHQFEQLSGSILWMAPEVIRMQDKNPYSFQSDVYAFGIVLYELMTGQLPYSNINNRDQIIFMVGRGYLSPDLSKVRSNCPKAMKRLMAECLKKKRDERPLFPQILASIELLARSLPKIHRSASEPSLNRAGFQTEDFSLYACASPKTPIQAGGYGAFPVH
T6 sequence (P09619 600-962 limits assumed): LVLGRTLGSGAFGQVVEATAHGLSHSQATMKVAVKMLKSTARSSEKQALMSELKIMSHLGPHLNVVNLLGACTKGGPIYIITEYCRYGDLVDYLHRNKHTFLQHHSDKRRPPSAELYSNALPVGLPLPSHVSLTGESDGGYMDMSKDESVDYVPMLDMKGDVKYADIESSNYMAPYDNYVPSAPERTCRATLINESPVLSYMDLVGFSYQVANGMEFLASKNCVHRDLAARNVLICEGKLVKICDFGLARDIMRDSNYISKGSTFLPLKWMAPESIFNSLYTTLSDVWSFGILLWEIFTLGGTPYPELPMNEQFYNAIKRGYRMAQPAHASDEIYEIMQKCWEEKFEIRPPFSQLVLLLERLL

`Cc1cn(-c2cc(C(=O)Nc3ccc(C)c(Nc4nccn4-c4ncnc5[nH]ccc45)c3)cc(C(F)(F)F)c2)cn1` [Example 2, 3-(4-methyl-imidazol-1-yl)-N-{4-methyl-3-[1-(7H-pyrrolo[2,3-d]pyrimidin-4-yl)-1H-imidazol-2-ylamino]-phenyl}-5-trifluoromethyl-benzamide]: the 50% inhibitory concentration (IC50) (in general, the concentration that inhibits the measured activity by half) in test [1] is 43 nM; in test [2], under 0.5 nM; on b-Raf it was 2 nM; in test [3] it was 63 nM; in test [4], under 0.5 nM; in test [5] it was 56 nM. In addition, the IC50 was 4 nM in [6], 32 nM in [7] and under 0.5 nM in test [8].
